Earlier results on three compounds are cited in article PMC8541945 (Investigational New Drugs, 2021).

The subject of series [1] is brain metastases secondary to HR + /HER2- metastatic BC. Set-up: method as in earlier work.
In series [2] the test system is patients. Set-up: method as in PMID 28580882, PMID 28968163.
Series [3] has as its system heavily pretreated patients, HR + /HER2- advanced BC. Further details: method as in PMID 28533223. Particulars: abemaciclib alone, 132 heavily pretreated patients.
For series [4], the system named is patients. To be noted: single agent, phase 1 trials.
Series [5] deals with patients in the ribociclib group.
For series [6] the following is noted: following multiple doses, 600-mg dose group.

`CCN1CCN(Cc2ccc(Nc3ncc(F)c(-c4cc(F)c5nc(C)n(C(C)C)c5c4)n3)nc2)CC1` [abemaciclib]: in series [1], the “Confirmed objective intracranial response” value was 6%, the “Intracranial clinical benefit rate (CR + PR + SD persisting for ≥ 6 months)” value is 25% and the “Patients with a decrease in the sum of intracranial target lesions” value is reported as 38%. Moreover, the “Grade 3/4 neutropenia” value in the series on patients [2] is on record as 21.1%. Besides, in series [3], the CBR is listed as 42.4%, the “Confirmed ORR” value is on record as 19.7%, the “Median OS” value is on record as 17.7 months and the “Median PFS” value is recorded as 6.0 months.

In the case of `CC(=O)c1c(C)c2cnc(Nc3ccc(N4CCNCC4)cn3)nc2n(C2CCCC2)c1=O` [palbociclib], the “Patients who experienced SD” value in the series on patients [4] is “approximately 30%”.

In the case of `CN(C)C(=O)c1cc2cnc(Nc3ccc(N4CCNCC4)cn3)nc2n1C1CCCC1` [ribociclib], the “Patients with dose interruptions or dose reductions due to QTcF increase” value in series [5] (13 patients) was 4%. Moreover, the “Patients with increase of more than 60 ms from baseline in the QTcF interval” value in series [5] (32 of 335 patients in the ribociclib group) is reported as 10%. For the same compound, in series [6], the “Cmax, geometric mean [range]” value is 1940 [range, 859–5860] ng/ml. In addition, the “Patients who experienced SD” value in the series with patients [4] is “approximately 30%”.
